The source of these data is US20220280661A1, “GLUCOCORTICOID RECEPTOR RADIOLIGANDS AND METHODS FOR THEIR PREPARATION AND USE” (The Regents of the University of California, priority 2019, published 2022).

One series concerns the target T1, full length human MR (Homo sapiens, UniProt P08235).
T1 construct: HEK293 transiently overexpressing full length human MR; expressed in transfected cells; host or cells: HEK293
T1 sequence (P08235 1-984): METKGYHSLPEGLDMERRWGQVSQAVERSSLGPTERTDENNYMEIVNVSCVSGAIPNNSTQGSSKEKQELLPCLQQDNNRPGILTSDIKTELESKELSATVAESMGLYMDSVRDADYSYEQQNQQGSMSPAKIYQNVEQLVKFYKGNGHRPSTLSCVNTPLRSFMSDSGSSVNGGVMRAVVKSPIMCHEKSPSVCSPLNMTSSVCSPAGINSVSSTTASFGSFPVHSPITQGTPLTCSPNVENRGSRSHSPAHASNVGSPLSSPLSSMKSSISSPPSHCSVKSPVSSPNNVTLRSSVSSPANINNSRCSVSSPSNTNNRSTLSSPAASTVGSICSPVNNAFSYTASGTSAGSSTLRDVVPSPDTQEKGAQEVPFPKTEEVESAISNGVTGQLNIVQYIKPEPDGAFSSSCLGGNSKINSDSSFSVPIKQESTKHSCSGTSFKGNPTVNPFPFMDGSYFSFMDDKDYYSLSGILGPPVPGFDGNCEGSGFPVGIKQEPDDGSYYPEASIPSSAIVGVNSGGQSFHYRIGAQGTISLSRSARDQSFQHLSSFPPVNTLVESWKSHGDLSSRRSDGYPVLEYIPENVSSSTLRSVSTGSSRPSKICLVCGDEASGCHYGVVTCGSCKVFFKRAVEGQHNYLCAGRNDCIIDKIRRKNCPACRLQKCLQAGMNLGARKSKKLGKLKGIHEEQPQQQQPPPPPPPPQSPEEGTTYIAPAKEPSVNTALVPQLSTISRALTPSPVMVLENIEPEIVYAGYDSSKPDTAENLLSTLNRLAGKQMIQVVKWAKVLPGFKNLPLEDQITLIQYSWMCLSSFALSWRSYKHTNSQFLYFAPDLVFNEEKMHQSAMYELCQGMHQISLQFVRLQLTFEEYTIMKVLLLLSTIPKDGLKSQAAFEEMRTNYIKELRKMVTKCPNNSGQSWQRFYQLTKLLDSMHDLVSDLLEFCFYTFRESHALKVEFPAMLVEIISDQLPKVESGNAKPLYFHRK
As to the kind of experiment: 3H-ligand displacement assay on cells, MR (HEK293 overexpressing MR). The format is binding. On the procedure: The affinity of YJH08 for GR and the other type 1 subfamily 3 nuclear hormone receptors was evaluated using ^3H-ligand displacement assays on cells. The Kd for subfamily 3 class C nuclear hormone receptors was determined on cells by displacing ^3H-steroidal agonists for the respective receptor. […] The Kd was determined using the following cell lines: DU145 (GR), LNCaP-AR (AR), MCF7 (PR, ER), and HEK293 transiently overexpressing full length human MR.
The cold ligands and ^3H-steroids were co-incubated on cells in PBS at room temperature for one hour. Following incubation, the cells were washed twice with ice cold PBS and the unbound activity was retained for analysis. The cells were lysed with 1 mL of 1M NaOH and collected. Bound and unbound fractions were counted in a liquid scintillation counter and expressed as a percentage of the total activity added per equal relative number of cells. […] These experiments were performed at three concentrations of experimental ligand (1 pM, 100 nM and 10 μM), and a linear extrapolation was used to subtract the non-specific component of binding from each treatment condition. The specific binding component was plotted against the log of the competing ligand and curve fit using a non-linear regression algorithm with PRISM software.

Series [1] in a line: Post mortem biodistribution of [18F]-YJH08 at 30, 60, 90 min. The class given is in vivo, mouse. Particulars: C57B16/J mice. The procedure:
For a broader survey of radiotracer biodistribution post mortem, mice were euthanized after radiotracer injection with CO2(g) asphyxiation and dissected at dedicated time points post injection. The blood and tissues were removed, washed, dried and weighed. The activity of each tissue was measured with a gamma counter. All data was decay corrected. PRISM software was used to express a percentage (% ID/g) of the injected dose per gram of tissue. […] Table 2 provides a tabular representation of the biodistribution data collected 30, 60, 90 minutes after injection of [18F]-YJH08 in C57B16/J mice. The data are represented as mean standard deviation of the % ID/g.

Series [2] is described as follows: Dynamic PET scan of [18F]-YJH08, time activity curves. Particulars: two phase exponential decay fit; C57B16/J mice. The format is in vivo, mouse. On the procedure: To understand the biodistribution of [18F]-YJH08 in vivo, a dynamic PET scan over 60 min was first conducted in immunocompetent male C57B16/J mice (FIG. 3A). Prior to injection, the formulated dose of [18F]-YJH08 was passed through a sterile 0.22 μm membrane. Approximately 300 μCi was injected via tail vein in a volume of 100-150 μL per mouse. After a given period of uptake time, the mice were anesthetized with 2-3% isoflurane, and imaged with a Siemens Inveon micro PET/CT. For dynamic acquisitions, the mice were anesthetized prior to injection, and injected while positioned on the scanner bed. All imaging data was decay corrected, reconstructed, and analyzed with AMIDE software. Maximum intensity projections (MIPs) were generated by AMIDE software. Regions of interest (ROI) were manually placed to calculate SUV data from the dynamic acquisitions.
First, the radiotracer rapidly cleared from serum, and fitting the data with a two phase exponential decay curve estimated the fast and slow half-lives to be ˜21 sec and ˜760 sec, respectively. Moreover, liver uptake was prominent at very early time points post injection (0-300 sec), with continuous washout from ˜300-3600 sec.

The term Kd denotes the free concentration of one partner at which half of the binding sites on the other are occupied at equilibrium, for simple one-to-one binding. Read a low Kd as a tighter complex. `COc1cccc2c1-c1ccc3c(c1C(Cc1ccc(F)cc1)O2)C(C)=CC(C)(C)N3` (racemic) [YJH08, 5-(4-fluorobenzyl)-10-methoxy-2,2,4-trimethyl-2,5-dihydro-1H-chromeno[3,4-f]quinoline]: at full length human MR, binding was characterised by a dissociation constant (Kd) of 290 nM.
Take `COc1cccc2c1-c1ccc3c(c1C(Cc1ccc([18F])cc1)O2)C(C)=CC(C)(C)N3` (racemic) [[18F]-YJH08, [^18F]-5-(4-fluorobenzyl)-10-methoxy-2,2,4-trimethyl-2,5-dihydro-1H-chromeno[3,4-f]quinoline]: in series [1] (30 min after injection), the “radiotracer uptake, Adrenal Gland” value is recorded as 20.02 ± 2.21 % ID/g; the “radiotracer uptake, Blood” value amounted to 0.85 ± 0.1 % ID/g; the “radiotracer uptake, Bone” value was found to be 1.11 ± 0.15 % ID/g; the “radiotracer uptake, Brain” value is 1.68 ± 0.14 % ID/g. Further, in series [1] (30 min after injection), the “radiotracer uptake, Heart” value was 3.04 ± 0.75 % ID/g; the “radiotracer uptake, Kidney” value is 4.5 ± 0.5 % ID/g; the “radiotracer uptake, Large intestine” value amounted to 1.33 ± 0.35 % ID/g; the “radiotracer uptake, Liver” value worked out at 11.03 ± 0.89 % ID/g. In series [1] (30 min after injection), the “radiotracer uptake, Lung” value is recorded as 2.65 ± 0.19 % ID/g; the “radiotracer uptake, Muscle” value is given as 1.49 ± 0.2 % ID/g; the “radiotracer uptake, Pancreas” value is 4.5 ± 0.15 % ID/g; the “radiotracer uptake, Small intestine” value came out at 19.05 ± 3.27 % ID/g. Further, in series [1] (30 min after injection), the “radiotracer uptake, Spleen” value came out at 1.59 ± 0.13 % ID/g; the “radiotracer uptake, Stomach” value turned out to be 1.88 ± 0.96 % ID/g; the “radiotracer uptake, Supraspinal BAT” value was found to be 14.41 ± 3.42 % ID/g. Besides, in series [1] (60 min after injection), the “radiotracer uptake, Adrenal Gland” value was 9.43 ± 0.08 % ID/g; the “radiotracer uptake, Blood” value turned out to be 0.57 ± 0.02 % ID/g; the “radiotracer uptake, Bone” value amounted to 0.61 ± 0.15 % ID/g; the “radiotracer uptake, Brain” value was 1.33 ± 0.06 % ID/g. In series [1] (60 min after injection), the “radiotracer uptake, Heart” value was determined as 1.33 ± 0.21 % ID/g; the “radiotracer uptake, Kidney” value was 2.35 ± 0.34 % ID/g; the “radiotracer uptake, Large intestine” value was 1.23 ± 0.43 % ID/g; the “radiotracer uptake, Liver” value came to 7.7 ± 0.69 % ID/g. Moreover, in series [1] (60 min after injection), the “radiotracer uptake, Lung” value stood at 2.02 ± 0.29 % ID/g; the “radiotracer uptake, Muscle” value is on record as 1.15 ± 0.03 % ID/g; the “radiotracer uptake, Pancreas” value was 2.63 ± 0.05 % ID/g; the “radiotracer uptake, Small intestine” value is given as 8.61 ± 2.68 % ID/g. Further, in series [1] (60 min after injection), the “radiotracer uptake, Spleen” value stood at 0.83 ± 0.02 % ID/g; the “radiotracer uptake, Stomach” value came out at 1.63 ± 0.92 % ID/g; the “radiotracer uptake, Supraspinal BAT” value stood at 16.4 ± 4.93 % ID/g. Besides, in series [1] (90 min after injection), the “radiotracer uptake, Adrenal Gland” value is 5.72 ± 2.32 % ID/g; the “radiotracer uptake, Blood” value is 0.49 ± 0.06 % ID/g; the “radiotracer uptake, Bone” value is listed as 0.58 ± 0.16 % ID/g; the “radiotracer uptake, Brain” value was 0.97 ± 0.03 % ID/g. Besides, in series [1] (90 min after injection), the “radiotracer uptake, Heart” value is 0.92 ± 0.14 % ID/g; the “radiotracer uptake, Kidney” value was determined as 1.86 ± 0.26 % ID/g; the “radiotracer uptake, Large intestine” value turned out to be 6.67 ± 4.73 % ID/g; the “radiotracer uptake, Liver” value amounted to 8.43 ± 1.38 % ID/g. Moreover, in series [1] (90 min after injection), the “radiotracer uptake, Lung” value is 1.39 ± 0.1 % ID/g; the “radiotracer uptake, Muscle” value was 0.85 ± 0.18 % ID/g; the “radiotracer uptake, Pancreas” value is on record as 1.9 ± 0.41 % ID/g; the “radiotracer uptake, Small intestine” value was determined as 7.67 ± 2.34 % ID/g. Besides, in series [1] (90 min after injection), the “radiotracer uptake, Spleen” value was 0.74 ± 0.15 % ID/g; the “radiotracer uptake, Stomach” value turned out to be 2.61 ± 1.54 % ID/g; the “radiotracer uptake, Supraspinal BAT” value was 14.58 ± 1.91 % ID/g. In series [2], the “serum clearance fast half-life” value was roughly 0.35 min and the “serum clearance slow half-life” value is roughly 12.7 min.
